# Test results: PubChem BioAssay (NCI)
#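 Results reflect a 48-hour exposure of cells in 96-well plates to compound at five concentrations. TGI is the concentration that stops growth completely.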
# Columns and labels:
# Assay in all cases: NCI anticancer screen, dose series, 48 h
# NCI-H226 lung = system: NCI-H226 lung
# COLO 205 colon = system: COLO 205 colon
# MDA-N = system: MDA-N
# CAKI-1 renal = system: CAKI-1 renal
# RXF 393 renal = system: RXF 393 renal
# HS 578T breast = system: HS 578T breast
# M14 melanoma = system: M14 melanoma
# SK-MEL-28 melanoma = system: SK-MEL-28 melanoma
# U251 CNS = system: U251 CNS
# HCT-15 colon = system: HCT-15 colon
# SR leukemia = system: SR leukemia
# SN12C renal = system: SN12C renal
# MCF7 breast = system: MCF7 breast
# MALME-3M melanoma = system: MALME-3M melanoma
# NCI-H23 lung = system: NCI-H23 lung
# T-47D breast = system: T-47D breast
# MDA-MB-231 breast = system: MDA-MB-231 breast
# HOP-62 NSCLC = system: HOP-62 NSCLC
# SF-539 CNS = system: SF-539 CNS
# SF-295 CNS = system: SF-295 CNS
# OVCAR-4 ovarian = system: OVCAR-4 ovarian
# ACHN renal = system: ACHN renal
# PC-3 prostate = system: PC-3 prostate
# SNB-75 CNS = system: SNB-75 CNS
# NCI-H522 lung = system: NCI-H522 lung
# HCT-116 colon = system: HCT-116 colon
# LOX IMVI melanoma = system: LOX IMVI melanoma
# KM12 colon = system: KM12 colon
# NCI-H460 lung = system: NCI-H460 lung
# OVCAR-3 ovarian = system: OVCAR-3 ovarian
# MOLT-4 leukemia = system: MOLT-4 leukemia
# UACC-62 melanoma = system: UACC-62 melanoma
# HT29 colon = system: HT29 colon
# K-562 leukemia = system: K-562 leukemia
# HOP-92 NSCLC = system: HOP-92 NSCLC
# RPMI-8226 leukemia = system: RPMI-8226 leukemia
# SW-620 colon = system: SW-620 colon
# 786-0 renal = system: 786-0 renal
# SNB-19 CNS = system: SNB-19 CNS
# EKVX NSCLC = system: EKVX NSCLC
# A498 renal = system: A498 renal
# SF-268 CNS = system: SF-268 CNS
# SK-MEL-2 melanoma = system: SK-MEL-2 melanoma
# TK-10 renal = system: TK-10 renal
# IGROV1 ovarian = system: IGROV1 ovarian
# DU-145 prostate = system: DU-145 prostate
# HL-60(TB) leukemia = system: HL-60(TB) leukemia
# NCI/ADR-RES ovarian = system: NCI/ADR-RES ovarian
# MDA-MB-435 = system: MDA-MB-435
# OVCAR-8 ovarian = system: OVCAR-8 ovarian
# SK-MEL-5 melanoma = system: SK-MEL-5 melanoma
# UO-31 renal = system: UO-31 renal
# BT-549 breast = system: BT-549 breast
# OVCAR-5 ovarian = system: OVCAR-5 ovarian
# A549 NSCLC = system: A549 NSCLC
# SK-OV-3 ovarian = system: SK-OV-3 ovarian
# CCRF-CEM leukemia = system: CCRF-CEM leukemia
# UACC-257 melanoma = system: UACC-257 melanoma
# HCC-2998 colon = system: HCC-2998 colon
smiles,measurement,setting,value
CC(CCCC1SCC2NC(=O)NC21)C(=O)O (centres undefined),TGI,NCI-H226 lung,> 100 µM
same,TGI,COLO 205 colon,> 100 µM
same,TGI,MDA-N,> 100 µM
same,TGI,CAKI-1 renal,> 100 µM
same,TGI,RXF 393 renal,> 100 µM
same,TGI,HS 578T breast,> 100 µM
same,TGI,M14 melanoma,> 100 µM
same,TGI,SK-MEL-28 melanoma,> 100 µM
same,TGI,U251 CNS,> 100 µM
same,TGI,HCT-15 colon,> 100 µM
same,TGI,SR leukemia,> 100 µM
same,TGI,SN12C renal,> 100 µM
same,TGI,MCF7 breast,> 100 µM
same,TGI,MALME-3M melanoma,> 100 µM
same,TGI,NCI-H23 lung,> 100 µM
same,TGI,T-47D breast,> 100 µM
same,TGI,MDA-MB-231 breast,> 100 µM
same,TGI,HOP-62 NSCLC,> 100 µM
same,TGI,SF-539 CNS,> 100 µM
same,TGI,SF-295 CNS,> 100 µM
same,TGI,OVCAR-4 ovarian,> 100 µM
same,TGI,ACHN renal,> 100 µM
same,TGI,PC-3 prostate,> 100 µM
same,TGI,SNB-75 CNS,> 100 µM
same,TGI,NCI-H522 lung,> 100 µM
same,TGI,HCT-116 colon,> 100 µM
same,TGI,LOX IMVI melanoma,> 100 µM
same,TGI,KM12 colon,> 100 µM
same,TGI,NCI-H460 lung,> 100 µM
same,TGI,OVCAR-3 ovarian,> 100 µM
same,TGI,MOLT-4 leukemia,> 100 µM
same,TGI,UACC-62 melanoma,> 100 µM
same,TGI,HT29 colon,> 100 µM
same,TGI,K-562 leukemia,> 100 µM
same,TGI,HOP-92 NSCLC,> 100 µM
same,TGI,RPMI-8226 leukemia,> 100 µM
same,TGI,SW-620 colon,> 100 µM
same,TGI,786-0 renal,> 100 µM
same,TGI,SNB-19 CNS,> 100 µM
same,TGI,EKVX NSCLC,> 100 µM
same,TGI,A498 renal,> 100 µM
same,TGI,SF-268 CNS,> 100 µM
same,TGI,SK-MEL-2 melanoma,> 100 µM
same,TGI,TK-10 renal,> 100 µM
same,TGI,IGROV1 ovarian,> 100 µM
same,TGI,DU-145 prostate,> 100 µM
same,TGI,HL-60(TB) leukemia,> 100 µM
same,TGI,NCI/ADR-RES ovarian,> 100 µM
same,TGI,MDA-MB-435,> 100 µM
same,TGI,OVCAR-8 ovarian,> 100 µM
same,TGI,SK-MEL-5 melanoma,> 100 µM
same,TGI,UO-31 renal,> 100 µM
same,TGI,BT-549 breast,> 100 µM
same,TGI,OVCAR-5 ovarian,> 100 µM
same,TGI,A549 NSCLC,> 100 µM
same,TGI,SK-OV-3 ovarian,> 100 µM
CC(=O)Nc1ccc2cc3[nH]c4cc(NC(C)=O)ccc4c3nc2c1,TGI,NCI-H226 lung,> 100 µM
same,TGI,COLO 205 colon,> 100 µM
same,TGI,MDA-N,> 100 µM
same,TGI,CAKI-1 renal,> 100 µM
same,TGI,RXF 393 renal,> 100 µM
same,TGI,HS 578T breast,> 100 µM
same,TGI,M14 melanoma,> 100 µM
same,TGI,SK-MEL-28 melanoma,> 100 µM
same,TGI,U251 CNS,> 100 µM
same,TGI,HCT-15 colon,> 100 µM
same,TGI,SR leukemia,> 100 µM
same,TGI,SN12C renal,> 100 µM
same,TGI,MCF7 breast,> 100 µM
same,TGI,MALME-3M melanoma,> 100 µM
same,TGI,NCI-H23 lung,> 100 µM
same,TGI,T-47D breast,> 100 µM
same,TGI,CCRF-CEM leukemia,> 100 µM
same,TGI,MDA-MB-231 breast,> 100 µM
same,TGI,HOP-62 NSCLC,> 100 µM
same,TGI,SF-539 CNS,> 100 µM
same,TGI,SF-295 CNS,> 100 µM
same,TGI,OVCAR-4 ovarian,> 100 µM
same,TGI,ACHN renal,> 100 µM
same,TGI,PC-3 prostate,> 100 µM
same,TGI,SNB-75 CNS,> 100 µM
same,TGI,NCI-H522 lung,> 100 µM
same,TGI,HCT-116 colon,> 100 µM
same,TGI,LOX IMVI melanoma,> 100 µM
same,TGI,KM12 colon,> 100 µM
same,TGI,NCI-H460 lung,> 100 µM
same,TGI,OVCAR-3 ovarian,> 100 µM
same,TGI,MOLT-4 leukemia,77.3 µM
same,TGI,UACC-62 melanoma,> 100 µM
same,TGI,HT29 colon,> 100 µM
same,TGI,K-562 leukemia,> 100 µM
same,TGI,HOP-92 NSCLC,> 100 µM
same,TGI,RPMI-8226 leukemia,> 100 µM
same,TGI,SW-620 colon,> 100 µM
same,TGI,786-0 renal,> 100 µM
same,TGI,SNB-19 CNS,> 100 µM
same,TGI,EKVX NSCLC,> 100 µM
same,TGI,A498 renal,> 100 µM
same,TGI,UACC-257 melanoma,> 100 µM
same,TGI,SF-268 CNS,> 100 µM
same,TGI,SK-MEL-2 melanoma,> 100 µM
same,TGI,TK-10 renal,> 100 µM
same,TGI,IGROV1 ovarian,> 100 µM
same,TGI,HCC-2998 colon,> 100 µM
same,TGI,DU-145 prostate,> 100 µM
same,TGI,NCI/ADR-RES ovarian,> 100 µM
same,TGI,MDA-MB-435,> 100 µM
same,TGI,OVCAR-8 ovarian,> 100 µM
same,TGI,SK-MEL-5 melanoma,> 100 µM
same,TGI,UO-31 renal,> 100 µM
same,TGI,BT-549 breast,> 100 µM
same,TGI,OVCAR-5 ovarian,> 100 µM
same,TGI,A549 NSCLC,> 100 µM
same,TGI,SK-OV-3 ovarian,> 100 µM
